Legend:
[1] = target: T1, PD-L1 protein on the surface of MC38-hPDL1 tumor cells (Homo sapiens, UniProt Q9NZQ7); experiment: Induction of endocytosis of PD-L1 on the surface of tumor cells (flow cytometry); assay type: cell-based; details: 16 hours incubation; for Emax: MC38-hPDL1 cells, read-out: MC38 maximum endocytosis rate; for IC50: inducing endocytosis of PD-L1, MC38-hPDL1 cells, read-out: MC38 IC50
T1 construct: expressed in transfected cells; host or cells: MC38-hPDL1 (mouse colon cancer cells)
T1 sequence (Q9NZQ7 19-290): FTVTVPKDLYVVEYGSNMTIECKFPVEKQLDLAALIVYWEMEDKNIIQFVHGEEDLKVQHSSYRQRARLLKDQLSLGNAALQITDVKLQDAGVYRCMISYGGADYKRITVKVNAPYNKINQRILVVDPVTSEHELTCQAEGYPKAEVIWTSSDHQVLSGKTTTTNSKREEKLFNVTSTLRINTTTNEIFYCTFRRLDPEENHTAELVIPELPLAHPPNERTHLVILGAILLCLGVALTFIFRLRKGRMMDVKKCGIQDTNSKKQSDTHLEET
Description: Test Embodiment 2. Test of the Activity of Compounds of the Present Disclosure on Inducing the Endocytosis of PD-L1 Protein on the Surface of Tumor Cells
Experimental purpose: The purpose of this test embodiment was to test the activity of the compound on inducing the endocytosis of PD-L1 on the surface of tumor cells.
Experimental method: In order to test the activity of the compound on inducing the endocytosis of PD-L1, in this experiment, the activity of the compound on inducing the endocytosis of PD-L1 was tested by detecting the change degree of PD-L1 on the tumor cell surface with fluorescently labeled anti-PD-L1 antibody, and the IC50 of activity of the compound on inducing the endocytosis of PD-L1 was obtained.
The mouse colon cancer cells MC38-hPDL1 with high expression of hPD-L1 were collected, and adjusted to a suitable density and plated in a 24-well plate, and placed in a 37° C., 5% CO2 incubator to adhere overnight. Compounds were prepared into different concentrations by medium and added to a 24-well plate, and a vehicle control well was set up. After the cells were incubated in a 37° C., 5% CO2 incubator for 16 hours, the 24-well plate was taken out, and MC38-hPDL1 cells with different treatments in the plate were collected. After the cells were washed once with FACS buffer (PBS containing 0.5% BSA), and the cells were prepared to an appropriate density with FACS buffer. PE Mouse Anti-Human CD274 antibody (BD Pharmingen #557924) was added, and the cells were shaken at room temperature and incubated for 30 minutes without light, then the cells were washed twice with FACS buffer, resuspended in 100 μL of PBS, and a flow cytometer was used to detect the fluorescent signal on the cell surface, and the isotype control was set as a negative control.
The endocytosis rate of the compounds was calculated from the fluorescence signals of different treatment groups, and the compound concentration and endocytosis rate were fitted by nonlinear regression using GraphPad Prism software, and IC50 values were obtained, as shown in Table 2.

human PD-1/PD-L1 binding = target: T2, human PD-1/PD-L1 binding (Homo sapiens, UniProt Q9NZQ7); experiment: Inhibition of human PD-1/PD-L1 binding (TR-FRET/HTRF); details: TR-FRET, PD-L1-His and PD-1-Fc; read-out: PD-1/PD-L1 binding IC50
T2 construct: PD-L1-His protein (19 to 238 amino acids) (Abcam #ab167713); purchased Abcam (PD-L1-His); R&D (PD-1-Fc) ab167713; 1086-PD
T2 sequence (Q9NZQ7 19-238): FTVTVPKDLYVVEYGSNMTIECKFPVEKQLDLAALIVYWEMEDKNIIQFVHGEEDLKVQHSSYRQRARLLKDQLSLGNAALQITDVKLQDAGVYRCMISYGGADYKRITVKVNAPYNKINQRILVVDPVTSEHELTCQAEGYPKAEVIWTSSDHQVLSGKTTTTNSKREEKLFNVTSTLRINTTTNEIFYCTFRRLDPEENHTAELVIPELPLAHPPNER
Description: Test Embodiment 1: Test of Inhibitory Effect of the Compounds of the Present Disclosure on Human PD-1/PD-L1 Binding
Experimental purpose: The purpose of this test embodiment was to measure the inhibitory activity of the compounds on human PD-1/PD-L1 binding.
Experimental reagents: Binding Domain diluent buffer was purchased from Cisbio Company, Cat. No.: 62DLBDDF; MAb Anti-6HIS Eu cryptate Gold was purchased from Cisbio Company with the article number of 61HI2KLA; PAb Anti Human IgG-XL665 was purchased from Cisbio Company with the article number of 61HFCXLB; PD-L1-His protein was purchased from Abcam Company with the article number of ab167713; PD-1-Fc protein was purchased from R&D Company with the article number of 1086-PD; Detection buffer was purchased from Cisbio Company with the article number of 62SDBRDD; 384-well plate was purchased from PerkinElmer Company with the article number of 6007290.
Experimental method: In order to test the inhibitory activity of the compounds on human PD-1/PD-L1 binding, the method of time-resolved fluorescence resonance energy transfer (TR-FRET) was used in this experiment to test the inhibition of the compounds on human PD-1/PD-L1 binding, and the half inhibitory concentration IC50 of inhibitory activity of the compounds on human PD-1/PD-L1 binding was obtained.
This experiment was performed in a 384-well plate with a total reaction volume of 20 μL. Compounds were diluted to different concentrations (10 μM or 1 μM starting, 3-fold dilution, 11 doses) using assay buffer Binding Domain diluent buffer (Cisbio #62DLBDDF), then PD-L1-His protein (19 to 238 amino acids) (Abcam #ab167713) was diluted to 10 nM with assay buffer, and PD-1-Fc protein (25 to 167 amino acids) (R&D #1086-PD) was diluted to 20 nM with assay buffer; the compound, PD-L1 protein and PD-1 protein were added to a 384-well plate respectively, and the total volume was 10 μL, then centrifuged at 1000 rpm for 1 minute to mix well, and incubated for 60 minutes at room temperature. Then 10 μL of a mixed solution of MAb Anti-6HIS Eu cryptate Gold (Cisbio #61HI2KLA) and PAb Anti Human IgG-XL665 (Cisbio #61HFCXLB) diluted by HTRF Detection buffer was added to each well, and centrifuged at 1000 rpm for 1 minute to mix well. The reaction was carried out at room temperature for 3 hours or at 4° C. overnight, then a microplate reader (BioTek Synergy H1) was put into for reading; the excitation wavelength was 340 nm, and the emission wavelengths were 620 nm and 665 nm.
The ratio of fluorescence readings at 620 nm and 665 nm (665 nm/620 nm) was calculated, and the inhibition rate was calculated.

Emax [1] [%] | IC50 [1] [nM] | IC50 (human PD-1/PD-L1 binding) [nM] | Compound
96 | 1.3 | 3.6 | COc1cc(C(=O)Nc2cccc(-c3cccc(NC(=O)c4nc5c(n4C)CCN(C)C5)c3Cl)c2C)ncc1CNC1CCOCC1 [Embodiment 35, N-(2-Chloro-3′-(4-methoxy-5-(((tetrahydro-2H-pyran-4-yl)amino)methyl)picolinamido)-2′-methyl-[1,1′-biphenyl]-3-yl)-1,5-dimethyl-4,5,6,7-tetrahydro-1H-imidazo[4,5-c]pyridine-2-carboxamide]
85 | 8.1 | 5.1 | COc1cc(C(=O)Nc2cccc(-c3cccc(NC(=O)c4nc5c(n4C)CCN(C)C5)c3Cl)c2C)ncc1CNc1cc(C)ccn1 [Embodiment 11, N-(2-Chloro-3′-(4-methoxy-5-(((4-methylpyridin-2-yl)amino)methyl)picolinamido)-2′-methyl-[1,1′-biphenyl]-3-yl)-1,5-dimethyl-4,5,6,7-tetrahydro-1H-imidazo[4,5-c]pyridine-2-carboxamide]
92 | 14.5 | 5.9 | COc1cc(C(=O)Nc2cccc(-c3cccc(NC(=O)c4nc5c(n4C)CCN(C)C5)c3Cl)c2C)ncc1CN1CC(F)(CO)COC1=O (centres unmarked) [Embodiment 22, N-(2-Chloro-3′-(5-((5-fluoro-5-(hydroxymethyl)-2-carbonyl-1,3-oxazinan-3-yl)methyl)-4-methoxypicolinamido)-2′-methyl-[1,1′-biphenyl]-3-yl)-1,5-dimethyl-4,5,6,7-tetrahydro-1H-imidazo[4,5-c]pyridine-2-carboxamide]
86 | 5 | 2.4 | COc1cc(NCc2cnc(C(=O)Nc3cccc(-c4cccc(NC(=O)c5nc6c(n5C)CCNC6)c4Cl)c3Cl)cc2OC)ccn1 [Embodiment 81, N-(2,2′-Dichloro-3′-(4-methoxy-5-(((2-methoxypyridin-4-yl)amino)methyl)picolinamido)-[1,1′-biphenyl]-3-yl)-1-methyl-4,5,6,7-tetrahydro-1H-imidazo[4,5-c]pyridine-2-carboxamide]
90 | 1.9 | 4 | C=CCNCc1cnc(C(=O)Nc2cccc(-c3cccc(NC(=O)c4nc5c(n4C)CCN(C)C5)c3Cl)c2C)cc1OC [Embodiment 41, N-(3′-(5-((Allylamino)methyl)-4-methoxypicolinamido)-2-chloro-2′-methyl-[1,1′-biphenyl]-3-yl)-1,5-dimethyl-4,5,6,7-tetrahydro-1H-imidazo[4,5-c]pyridine-2-carboxamide]
91 | 1.5 | 2.4 | COc1cc(C(=O)Nc2cccc(-c3cccc(NC(=O)c4nc5c(n4C)CCN(C)C5)c3Cl)c2C)ncc1CNCCF [Embodiment 18, N-(2-Chloro-3′-(5-(((2-fluoroethyl)amino)methyl)-4-methoxypicolinamido)-2′-methyl-[1,1′-biphenyl]-3-yl)-1,5-dimethyl-4,5,6,7-tetrahydro-1H-imidazo[4,5-c]pyridine-2-carboxamide]
89 | 4.6 | 5 | COc1cc(NCc2cnc(C(=O)Nc3cccc(-c4cccc(NC(=O)c5nc6c(n5C)CCN(C)C6)c4Cl)c3Cl)cc2OC)ccn1 [Embodiment 2, N-(2,2′-Dichloro-3′-(4-methoxy-5-(((2-methoxypyridin-4-yl)amino)methyl)picolinamido)-[1,1′-biphenyl]-3-yl)-1,5-dimethyl-4,5,6,7-tetrahydro-1H-imidazo[4,5-c]pyridine-2-carboxamide]

The next lines start with the compound.

Compound | Emax [1] [%] | IC50 [1] [nM] | IC50 (human PD-1/PD-L1 binding) [nM]
Cc1c(NC(=O)c2cc(C3CC3)c(CO)cn2)cccc1-c1cccc(NC(=O)c2nc3c(n2C)CCN(C)C3)c1Cl [Embodiment 51, N-(2-Chloro-3′-(4-cyclopropyl-5-(hydroxymethyl)picolinamido)-2′-methyl-[1,1′-biphenyl]-3-yl)-1,5-dimethyl-4,5,6,7-tetrahydro-1H-imidazo[4,5-c]pyridine-2-carboxamide] | 91 | 11.8 | 5.5
COc1cc(NCc2cnc(C(=O)Nc3cccc(-c4cccc(NC(=O)c5nc6c(n5C)CCN(C)C6)c4Cl)c3C)cc2OC)ccn1 [Embodiment 1, N-(2-Chloro-3′-(4-methoxy-5-(((2-methoxypyridin-4-yl)amino)methyl)picolinamido)-2′-methyl-[1,1′-biphenyl]-3-yl)-1,5-dimethyl-4,5,6,7-tetrahydro-1H-imidazo[4,5-c]pyridine-2-carboxamide] | 88 | 3.4 | 6.9
COc1cc(C(=O)Nc2cccc(-c3cccc(NC(=O)c4nc5c(n4C)CCN(C)C5)c3Cl)c2C)ncc1CNC1(C)COC1 [Embodiment 99, N-(2-Chloro-3′-(4-methoxy-5-(((3-methyloxetan-3-yl)amino)methyl)picolinamido)-2′-methyl-[1,1′-biphenyl]-3-yl)-1,5-dimethyl-4,5,6,7-tetrahydro-1H-imidazo[4,5-c]pyridine-2-carboxamide] | 91 | 3.9 | 4.4
COc1cc(-c2cccc(-c3cccc(NC(=O)c4nc5c(n4C)CCN(C)C5)c3Cl)c2Cl)ncc1CNC[C@@H]1CCC(=O)N1 [Embodiment 56, (S)—N-(2,2′-Dichloro-3′-(4-methoxy-5-((((5-carbonylpyrrolidin-2-yl)methyl)amino)methyl)pyridin-2-yl)-[1,1′-biphenyl]-3-yl)-1,5-dimethyl-4,5,6,7-tetrahydro-1H-imidazo[4,5-c]pyridine-2-carboxamide] | 91 | 12.2 | 2.1
CCN1CCc2c(nc(C(=O)Nc3cccc(-c4cccc(NC(=O)c5cc(OC)c(CNc6ccnc(OC)c6)cn5)c4Cl)c3Cl)n2C)C1 [Embodiment 82, N-(2,2′-Dichloro-3′-(4-methoxy-5-(((2-methoxypyridin-4-yl)amino)methyl)picolinamido)-[1,1′-biphenyl]-3-yl)-5-ethyl-1-methyl-4,5,6,7-tetrahydro-1H-imidazo[4,5-c]pyridine-2-carboxamide] | 85 | 12 | 3.9
COc1nc(-c2cccc(-c3cccc(NC(=O)c4nc5c(n4C)CCN(C)C5)c3Cl)c2Cl)ccc1CN1CC2CC(C1)N2C(=O)CC#N [Embodiment 208, N-(2,2′-Dichloro-3′-(5-((6-(2-cyanoacetyl)-3,6-diazabicyclo[3.1.1]heptan-3-yl)methyl)-6-methoxypyridin-2-yl)-[1,1′-biphenyl]-3-yl)-1,5-dimethyl-4,5,6,7-tetrahydro-1H-imidazo[4,5-c]pyridine-2-carboxamide] | 81 | – | 9

— patent US20230105212A1, “BIPHENYL DERIVATIVE INHIBITOR, PREPARATION METHOD THEREFOR AND USE THEREOF” (SHANGHAI HANSOH BIOMEDICAL CO., LTD., priority 2020, published 2023)
